Values of other authors, collected in patent publication US9919015B2, “Composition and method for inhibiting herpesviridae infections” (VIRATEC PTY LTD, priority 2005, dated 2018).
Where two headings read alike, the source gives them in different places.

Columns and labels:
[1] = test system: herpes zoster; settings: Esmann et al. (1982); Bean et al (1983)
[2] = test system: recurrent herpes labialis; settings: treatment commenced within 1 hour; Rabon et al. (1989)
[3] = test system: primary herpetic gingivostomatitis; settings: Primary Herpetic Stomatitis
[4] = test system: recurrent genital herpetic infection; settings: for healing rate, oral acyclovir: Nilsen et al. (1982); for healing rate, topical acyclovir: Corey et al. (1982)
[5] = test system: Oral Hairy Leukoplakia (EBV)

For Nc1nc2c(ncn2COCCO)c(=O)[nH]1 [Acyclovir, acyclovir], the “time to initial crusting with acyclovir” value [1] is given as 2 to 3 days, the “complete healing with acyclovir” value [2] is given as 7 to 8 days and the “time to analgesia with acyclovir” value [2] is given as 1 to 2 days. The “Expected healing time Acyclovir (upper end)” value [3] was ≤ 4 weeks, the “Expected healing time Acyclovir” value ([3]; treated symptomatically or with acyclovir, listed as acyclovir) was 10 to 28 days and the “healing rate, oral acyclovir” value [4] was 5 days oral. The “healing rate, oral acyclovir” value ([4]; listed as acyclovir) was 5 days, the “healing rate, topical acyclovir” value [4] was 7.4 days topical and the “healing rate, topical acyclovir” value ([4]; listed as acyclovir) was 7.4 days. The “response, subjects” value ([5]; oral acyclovir, after 10 days, Resnick et al (1988)) was 5/6, the “response time with oral acyclovir” value ([5]; Herbst et al. (1989), Resnick et al (1988)) was 10-20 days - oral and the “response time with oral acyclovir” value ([5]; Herbst et al. (1989), Resnick et al (1988), listed as acyclovir) was 10 to 20 days. The “resolution of OHL, subjects” value ([5]; systemic acyclovir, after 20 days, Herbst et al. (1989)) was 12/14.
